Reference: patent US20080305978A1, “Cleaning compositions containing a hydrophilic fragrance” (S.C. Johnson & Son, Inc., priority 2007, published 2008)

What was measured:
[1] = Characteristics of fragrance components in words (vapor pressure, water solubility, oxidation); type: physicochemical
Excerpt: This test evaluated properties of fragrances with different levels of water solubility with regard to their effect on contributing to streaking/blooming.

[2] = Table 5; cited from earlier work

With `C=CC(C)CCCC(C)(C)O` (stereo not drawn) [Dihydromyrcenol] as the compound, how does the “Characteristics: vapor pressure” value ([1]; Table 5, in words) read?
Its value is “(1) Fairly high”.

What about the “Characteristics: water solubility” value ([1]; Table 5, in words) of the same compound?
The value was “(2) Reasonable”.

And the “Water Solubility” value ([1]; Table 6, in words)?
Its value is “Medium”.

And the “Vapor Pressure mm/Hg” value [2]?
The value was 0.7 mm/Hg.

Which results are given for `CCOC(=O)CC1(C)OCCO1` [Applinal = Fructone, Applinal]?
Characteristics: water solubility ([1]; Table 5, in words): High water; Water Solubility ([1]; Table 6, in words): High; Water Solubility ([1]; text b58, in words): high

Which results are given for `CC(C=O)Cc1ccc(C(C)(C)C)cc1` (stereo not drawn) [Lilial]?
Characteristics: oxidation ([1]; Table 5, in words): (2) Easily oxidized; Characteristics: vapor pressure ([1]; Table 5, in words): (1) Low vapor; Characteristics: water solubility ([1]; Table 5, in words): (3) Low water; Water Solubility ([1]; Table 6, in words): Low; Vapor Pressure mm/Hg [2]: 0.004 mm/Hg
